pIC50: −log10 of the molar value. Calls of active or inactive are those of the source. How the calls were made is not given here. Residues, ends and D or L forms follow the SMILES beside them. *: point of attachment. Cbz = O=C(OCc1ccccc1)*
Columns and labels:
[1] = tested on: Mycobacterium tuberculosis H37Rv growth in 7H9 medium; assay: growth inhibition of Mycobacterium tuberculosis, dose response, 7H9 medium, purified and synthesized compounds, set 2 (AID 504556); details: for IC90: measured here: M. tuberculosis growth IC90
[2] = as above; details: Mycobacterium tuberculosis H37Rv growth in 7H9 medium; at 25 µM (top of the series)

Row | SMILES | pIC50 [1] | IC90 [1] [nM] | growth inhibition [2]
1 | CC1CCN(C(=O)C2CCN(c3nnc(-n4cccc4)s3)CC2)CC1 | 6.05 | 2230 | 
2 | c1ccc(/N=C2\N=C(Nc3ccccn3)c3ccccc32)nc1 | > 8.00 | < 10 | 
3 | CCC(C)Nc1ccc(NC(C)CC)cc1 (stereo not given) | 6.49 | 590 | 
4 | CCOC(=O)COc1ccc(/C=C2\NC(=S)N(CC)C2=O)cc1 | 6.09 | 6190 | 
5 | O=C(CSc1nc2ccccc2c(=O)[nH]1)NCc1ccc(Cl)cc1 | 6.80 | 720 | 
6 | O=C(/C=C\c1cccs1)N1CCN(Cc2ccc3c(c2)OCO3)CC1 | 6.48 | 1970 | 
7 | CC(=NCc1ccc2c(c1)OCO2)C1=C(O)c2ccccc2C1=O | 6.40 | 6040 | 
8 | CC[N+](C)(CC)CCCCOc1ccc2c(c1)C(=O)c1cc(OCCCC[N+](C)(CC)CC)ccc1-2 | 6.11 | 1220 | 
9 | Cc1nc(SCC(=O)NC2CCCCC2)[nH]c(=O)c1C | 7.40 | 1030 | 
10 | COC(=O)c1cc(=O)n(-c2ccc(F)cc2)c(=Nc2ccc(F)cc2)s1 | 6.82 | 1460 | 
11 | O=C(/C=C/c1ccccc1)N1CCN(CCN2C(=O)c3cccc4cccc(c34)C2=O)CC1 | 5.89 | 3470 | 
12 | Cc1ccc2ccc3ccc(C)nc3c2n1 | 7.30 | 230 | 
13 | COC(=O)c1ccc(CNc2c(N3CCCC3)c(=O)c2=O)cc1 |  |  | 0.86% (inactive)
14 | Cc1cc(Br)ccc1NC(=O)c1cnc(N2CCN(c3ccccn3)CC2)c2ccccc12 | 6.74 | 1470 | 
15 | COC(=O)C(C)Oc1ccc(-c2nccc(-c3ccccn3)n2)cc1 (stereo not given) | 5.93 | 2590 | 
16 | Nc1c(C(=O)NC2CCCCC2)nsc1C(=O)OCC(=O)NC1CCCCC1 | 6.42 | 2090 | 
17 | Cc1nn2c(NCc3ccccn3)cc(C(C)C)nc2c1-c1ccccc1 | 6.29 | 820 | 
18 | S=c1nc[nH]c2nc[nH]c12 | 6.02 | 1570 | 
19 | CCOC1OC(=O)C(Cl)=C1Nc1ccccc1C (stereo not given) | 5.69 | 9040 | 
20 | Cc1ccc(NC(=O)C2C3/C=C\CCCCC32)cc1C (stereo not given) | 5.83 | 4010 | 

Row | SMILES | pIC50 [1] | IC90 [1] [nM] | growth inhibition [2]
21 | CCOC(=O)C(C)Sc1ncnc2c1nnn2-c1ccc(F)cc1 (stereo not given) | 7.15 | 3420 | 
22 | COC(=O)C(Nc1nc(SCC(=O)NC2CCCCC2)nc2ccccc12)c1ccccc1 (stereo not given) |  |  | 2.12% (inactive)
23 | Cc1ccc(C(=O)N/N=C(/CC(=O)c2cccs2)C(F)(F)F)cc1 | 6.27 | 1050 | 
24 | O=C(NCC(c1cccs1)N1CCOCC1)c1cc([N+](=O)[O-])cc([N+](=O)[O-])c1 (stereo not given) | 7.05 | 190 | 
25 | COC(=O)CCc1nc2c(C#N)c(-c3ccc(Cl)cc3)ccn2n1 | 5.95 | 2460 | 
26 | O=C1C(Br)=Cc2cccc3cccc1c23 | 7.70 | 1080 | 
27 | Cc1cccc(/C=C/C(=O)c2ccc([N+](=O)[O-])o2)c1 | > 8.00 | < 10 | 
28 | CCOC(=O)COn1c2c(c3c4no[n+]([O-])c4ccc31)CCCC2 | 5.76 | 3680 | 
29 | Cc1cccc(-c2oc3ccc(-c4ccc5c(c4)OCO5)cc3c2C#Cc2cncn2C)c1 | 5.63 | 3220 | 
30 | Oc1ccccc1/C=N/Nc1ccnc(SCc2ccccc2)n1 |  |  | 19.3% (inactive)
31 | CC(C)NC(=O)c1sc(=S)n2c1[nH]c(=O)c1ccc(C(=O)NCCc3ccc(Cl)cc3)cc12 | 7.10 | 230 | 
32 | CNc1nc(SCc2ccccc2Cl)nc2c1CCCC2 | 6.17 | 1910 | 
33 | COC(=O)C1CC(=O)N(c2ccc(OCc3ccccc3Cl)cc2)C1 (stereo not given) | 6.66 | 3840 | 
34 | Cc1ccc2c(c1)c(C1=c3ccccc3=NC1=O)c(O)n2C | 6.60 | 1720 | 
35 | CCOC(=O)CNC(=O)[C@H](Cc1ccccc1)NC(=O)OCc1ccccc1 (Cbz-Phe-Gly-OEt) | 6.21 | 1220 | 
36 | CCOC(=O)c1ccc(NC(=O)Cn2ncc(Cl)c(Cl)c2=O)cc1 | 7.15 | 480 | 
37 | O=C(CSc1nc2ccccc2c(=O)[nH]1)NC1CCCCC1 | > 8.00 | < 10 | 
38 | CCc1ccc(/C=C2/C(=O)N(C)C(=S)N2CC(=O)OC)s1 | 6.72 | 3110 | 
39 | COc1cc(NC(=O)C/C(C)=N/NC(=O)c2ccccn2)c(OC)cc1Cl | 6.00 | 3040 | 
